According to patent US20220389061A1, “IMMUNOMODULATORS” (priority 2019, published 2022):
Starred links: 1 amine or outer side, 2 acyl side, 3 side chain; linkers in the order of their positions; H or OH if unused. Positions of bridges follow the written chain, without caps; N, C: chain ends. Non-standard residues stand in square brackets, D forms with d. Residues, ends and D or L forms follow the SMILES beside them. Groups on a side chain read outwards from the residue. *: point of attachment. Trp(1-CH2CO2Me) = COC(=O)Cn1cc(C[C@H](N)C(=O)O)c2ccccc21; Trp(1-CH2COOH) = N[C@@H](Cc1cn(CC(=O)O)c2ccccc12)C(=O)O; Benzoyl(2-(4-MeOPh)) = COc1ccc(-c2ccccc2C(=O)*)cc1; X63 = COc1cc([N+](=O)[O-])ccc1NC(=S)*; X79 = CCn1c2ccccc2c2cc(NC(=S)*)ccc21; NH(1-naphthyl) = c1ccc2c(N*)cccc2c1; X50 = COc1cc(NC(=S)*)ccc1-c1cnco1; Hyp = O=C(O)[C@@H]1C[C@@H](O)CN1; X33 = Cc1cc2ccc(NC(=S)*)cc2[nH]1; X30 = FC(F)(F)c1ccc(N*)c(Cl)c1; NMeNle = CCCC[C@H](NC)C(=O)O; X85 = S=C(Nc1c(Cl)cccc1Cl)*; X2 = c1ccc(-c2ccccc2N*)cc1; NMeA = CN[C@@H](C)C(=O)O; Dab = NCC[C@H](N)C(=O)O; Dap = NC[C@H](N)C(=O)O; X15 = Cc1ccc(Cl)cc1N*; CO = O=C([*:1])[*:2]

molecular target: T1, PD-1/PD-L1 (Homo sapiens, UniProt Q9NZQ7); experiment: PD-1/PD-L1 Homogenous Time-Resolved Fluorescence (HTRF) binding assay; conditions: not given
T1 construct: TVMV protease site linker (C); made in house; host or cells: HEK293T cells
Summary of the method: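 Compounds preincubated 15 min with PD-L1-His (10 nM final), then PD-1-Ig (20 nM final) added for 15 min in dPBS with 0.1% BSA, 0.05% Tween-20. Detection by Eu-cryptate anti-Ig (1 nM) and APC anti-His (20 nM) HTRF.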

T1 sequence (Q9NZQ7 18-239): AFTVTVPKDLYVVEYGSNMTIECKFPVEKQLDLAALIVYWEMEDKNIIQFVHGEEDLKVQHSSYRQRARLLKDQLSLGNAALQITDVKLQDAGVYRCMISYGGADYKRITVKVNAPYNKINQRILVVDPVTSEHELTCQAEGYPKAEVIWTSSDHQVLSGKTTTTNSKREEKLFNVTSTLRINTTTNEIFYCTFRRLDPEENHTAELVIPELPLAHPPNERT

SMILES	IC50 [nM]
CCCC[C@H]1C(=O)N(C)[C@@H](CCCC)C(=O)N[C@@H](CC(C)C)C(=O)N[C@H](C(=O)NCC(N)=O)CSCC(=O)N[C@@H](Cc2ccc(O)cc2)C(=O)N(C)[C@@H](C)C(=O)N[C@@H](CC(N)=O)C(=O)N2CCC[C@H]2C(=O)N[C@@H](CNC(=S)Nc2ccc([N+](=O)[O-])cc2OC)C(=O)N[C@@H](CC(C)C)C(=O)N2C[C@H](O)C[C@H]2C(=O)N[C@@H](Cc2c[nH]c3ccccc23)C(=O)N[C@@H](CCNC(=S)Nc2ccc([N+](=O)[O-])cc2OC)C(=O)N[C@@H](Cc2cn(CC(=O)O)c3ccccc23)C(=O)N1C [Example 1104] ({CH2CO}-Y[NMeA]NP[Dap](X63)L[Hyp]W[Dab](X63)[Trp(1-CH2COOH)][NMeNle][NMeNle]LCG-NH2; thioether N-14)	12
CCCC[C@H]1C(=O)N(C)[C@@H](CCCC)C(=O)N[C@@H](CC(C)C)C(=O)N[C@H](C(=O)NCC(N)=O)CSCC(=O)N[C@@H](Cc2ccc(O)cc2)C(=O)N(C)[C@@H](C)C(=O)N[C@@H](CC(N)=O)C(=O)N2CCC[C@H]2C(=O)N[C@@H](CNC(=O)Nc2cccc3ccccc23)C(=O)N[C@@H](CC(C)C)C(=O)N2C[C@H](O)C[C@H]2C(=O)N[C@@H](Cc2c[nH]c3ccccc23)C(=O)N[C@@H](CCNC(=O)Nc2cccc3ccccc23)C(=O)N[C@@H](Cc2cn(CC(=O)O)c3ccccc23)C(=O)N1C [Example 3005] ({CH2CO}-Y[NMeA]NP[Dap]([CO-NH(1-naphthyl)])L[Hyp]W[Dab]([CO-NH(1-naphthyl)])[Trp(1-CH2COOH)][NMeNle][NMeNle]LCG-NH2; thioether N-14)	3.2

same assay, conditions: PD-L1-His 10 nM pre-incubated with inhibitor, PD-1-Ig 20 nM; read-out: HTRF IC50

IC50 [nM]	SMILES
3.1	CCCC[C@H]1C(=O)N(C)[C@@H](CCCC)C(=O)N[C@@H](CC(C)C)C(=O)N[C@H](C(=O)NCC(N)=O)CSCC(=O)N[C@@H](Cc2ccc(O)cc2)C(=O)N(C)[C@@H](C)C(=O)N[C@@H](CC(N)=O)C(=O)N2CCC[C@H]2C(=O)N[C@@H](CNC(=S)Nc2ccc(-c3cnco3)c(OC)c2)C(=O)N[C@@H](CC(C)C)C(=O)N2C[C@H](O)C[C@H]2C(=O)N[C@@H](Cc2c[nH]c3ccccc23)C(=O)N[C@@H](CCNC(=S)Nc2ccc(-c3cnco3)c(OC)c2)C(=O)N[C@@H](Cc2cn(CC(=O)O)c3ccccc23)C(=O)N1C [Example 1029] ({CH2CO}-Y[NMeA]NP[Dap](X50)L[Hyp]W[Dab](X50)[Trp(1-CH2COOH)][NMeNle][NMeNle]LCG-NH2; thioether N-14)
3.8	CCCC[C@H]1C(=O)N(C)[C@@H](CCCC)C(=O)N[C@@H](CC(C)C)C(=O)N[C@H](C(=O)NCC(N)=O)CSCC(=O)N[C@@H](Cc2ccc(O)cc2)C(=O)N(C)[C@@H](C)C(=O)N[C@@H](CC(N)=O)C(=O)N2CCC[C@H]2C(=O)N[C@@H](CNC(=S)Nc2ccc3c(c2)c2ccccc2n3CC)C(=O)N[C@@H](CC(C)C)C(=O)N2C[C@H](O)C[C@H]2C(=O)N[C@@H](Cc2c[nH]c3ccccc23)C(=O)N[C@@H](CCN)C(=O)N[C@@H](Cc2cn(CC(=O)O)c3ccccc23)C(=O)N1C [Example 2014] ({CH2CO}-Y[NMeA]NP[Dap](X79)L[Hyp]W[Dab][Trp(1-CH2COOH)][NMeNle][NMeNle]LCG-NH2; thioether N-14)
0.6	CCCC[C@H]1C(=O)N(C)[C@@H](CCCC)C(=O)N[C@@H](CC(C)C)C(=O)N[C@H](C(=O)NCC(N)=O)CSCC(=O)N[C@@H](Cc2ccc(O)cc2)C(=O)N(C)[C@@H](C)C(=O)N[C@@H](CC(N)=O)C(=O)N2CCC[C@H]2C(=O)N[C@@H](CNC(=S)Nc2c(Cl)cccc2Cl)C(=O)N[C@@H](CC(C)C)C(=O)N2C[C@H](O)C[C@H]2C(=O)N[C@@H](Cc2c[nH]c3ccccc23)C(=O)N[C@@H](CCNC(=S)Nc2c(Cl)cccc2Cl)C(=O)N[C@@H](Cc2cn(CC(=O)O)c3ccccc23)C(=O)N1C [Example 1039] ({CH2CO}-Y[NMeA]NP[Dap](X85)L[Hyp]W[Dab](X85)[Trp(1-CH2COOH)][NMeNle][NMeNle]LCG-NH2; thioether N-14)
3	CCCC[C@H]1C(=O)N(C)[C@@H](CCCC)C(=O)N[C@@H](CC(C)C)C(=O)N[C@H](C(=O)NCC(N)=O)CSCC(=O)N[C@@H](Cc2ccc(O)cc2)C(=O)N(C)[C@@H](C)C(=O)N[C@@H](CC(N)=O)C(=O)N2CCC[C@H]2C(=O)N[C@@H](CNC(=S)Nc2ccc3cc(C)[nH]c3c2)C(=O)N[C@@H](CC(C)C)C(=O)N2C[C@H](O)C[C@H]2C(=O)N[C@@H](Cc2c[nH]c3ccccc23)C(=O)N[C@@H](CCN)C(=O)N[C@@H](Cc2cn(CC(=O)O)c3ccccc23)C(=O)N1C [Example 3048] ({CH2CO}-Y[NMeA]NP[Dap](X33)L[Hyp]W[Dab][Trp(1-CH2COOH)][NMeNle][NMeNle]LCG-NH2; thioether N-14)
10	CCCC[C@H]1C(=O)N(C)[C@@H](CCCC)C(=O)N[C@@H](CC(C)C)C(=O)N[C@H](C(=O)NCC(N)=O)CSCC(=O)N[C@@H](Cc2ccc(O)cc2)C(=O)N(C)[C@@H](C)C(=O)N[C@@H](CC(N)=O)C(=O)N2CCC[C@H]2C(=O)N[C@@H](CN)C(=O)N[C@@H](CC(C)C)C(=O)N2C[C@H](O)C[C@H]2C(=O)N[C@@H](Cc2c[nH]c3ccccc23)C(=O)N[C@@H](CCNC(=O)Nc2ccc(C(F)(F)F)cc2Cl)C(=O)N[C@@H](Cc2cn(CC(=O)O)c3ccccc23)C(=O)N1C [Example 1115] ({CH2CO}-Y[NMeA]NP[Dap]L[Hyp]W[Dab]([CO-X30])[Trp(1-CH2COOH)][NMeNle][NMeNle]LCG-NH2; thioether N-14)
9.98	CCCC[C@H]1C(=O)N(C)[C@@H](CCCC)C(=O)N[C@@H](CC(C)C)C(=O)N[C@H](C(=O)NCC(N)=O)CSCC(=O)N[C@@H](Cc2ccc(O)cc2)C(=O)N(C)[C@@H](C)C(=O)N[C@@H](CC(N)=O)C(=O)N2CCC[C@H]2C(=O)N[C@@H](CNC(=O)Nc2cc(Cl)ccc2C)C(=O)N[C@@H](CC(C)C)C(=O)N2C[C@H](O)C[C@H]2C(=O)N[C@@H](Cc2c[nH]c3ccccc23)C(=O)N[C@@H](CCN)C(=O)N[C@@H](Cc2cn(CC(=O)O)c3ccccc23)C(=O)N1C [Example 1106] ({CH2CO}-Y[NMeA]NP[Dap]([CO-X15])L[Hyp]W[Dab][Trp(1-CH2COOH)][NMeNle][NMeNle]LCG-NH2; thioether N-14)

SMILES	IC50 [nM]
CCCC[C@H]1C(=O)N(C)[C@@H](CCCC)C(=O)N[C@@H](CC(C)C)C(=O)N[C@H](C(=O)NCC(N)=O)CSCC(=O)N[C@@H](Cc2ccc(O)cc2)C(=O)N(C)[C@@H](C)C(=O)N[C@@H](CC(N)=O)C(=O)N2CCC[C@H]2C(=O)N[C@@H](CNC(=O)c2ccccc2-c2ccc(OC)cc2)C(=O)N[C@@H](CC(C)C)C(=O)N2C[C@H](O)C[C@H]2C(=O)N[C@@H](Cc2c[nH]c3ccccc23)C(=O)N[C@@H](CCNC(=O)c2ccccc2-c2ccc(OC)cc2)C(=O)N[C@@H](Cc2cn(CC(=O)OC)c3ccccc23)C(=O)N1C [Example 1050] ({CH2CO}-Y[NMeA]NP[Dap](Benzoyl(2-(4-MeOPh)))L[Hyp]W[Dab](Benzoyl(2-(4-MeOPh)))[Trp(1-CH2CO2Me)][NMeNle][NMeNle]LCG-NH2; thioether N-14)	39

same assay, conditions: read-out: HTRF IC50; PD-L1-His 10 nM pre-incubated with inhibitor, PD-1-Ig 20 nM

SMILES	IC50 [nM]
CCCC[C@H]1C(=O)N(C)[C@@H](CCCC)C(=O)N[C@@H](CC(C)C)C(=O)N[C@H](C(=O)NCC(N)=O)CSCC(=O)N[C@@H](Cc2ccc(O)cc2)C(=O)N(C)[C@@H](C)C(=O)N[C@@H](CC(N)=O)C(=O)N2CCC[C@H]2C(=O)N[C@@H](CNC(=O)Nc2ccccc2-c2ccccc2)C(=O)N[C@@H](CC(C)C)C(=O)N2C[C@H](O)C[C@H]2C(=O)N[C@@H](Cc2c[nH]c3ccccc23)C(=O)N[C@@H](CCNC(=O)Nc2ccccc2-c2ccccc2)C(=O)N[C@@H](Cc2cn(CC(=O)O)c3ccccc23)C(=O)N1C [Example 1014] ({CH2CO}-Y[NMeA]NP[Dap]([CO-X2])L[Hyp]W[Dab]([CO-X2])[Trp(1-CH2COOH)][NMeNle][NMeNle]LCG-NH2; thioether N-14)	0.7
